Results taken from the SangsterLogP compilation.
Each block holds one molecule with its values, some of them ahead of it.

Assays:
[1] = method code SF-HPLC, from DOI: 10.1016/j.bmcl.2010.02.057, PMID: 20231095; conditions: pH 7.4
[2] = method code SF-AS, from DOI: 10.1111/j.2042-7158.1979.tb13606.x, PMID: 41067; conditions: pH 1.2
[3] = method code SF-HPLC, from DOI: 10.1023/a:1016462801968, PMID: 3334410
[4] = not given; remark: listed apart in the source
[5] = method code SF-HPLC, from DOI: 10.1021/jm100498u, PMID: 20704351; conditions: pH 7.4
[6] = method code SF-AS, from DOI: 10.1002/jps.2600741028, PMID: 4078715
[7] = not given; remark: listed apart in the source
[8] = not given; remark: listed apart in the source
[9] = method code SF-AS, from DOI: 10.1002/ddr.430140205; conditions: pH 7.4
[10] = method code SF, from DOI: 10.1038/bjc.1982.190, PMID: 7150475; conditions: pH 7.4
[11] = method code SF-AS, from DOI: 10.1002/1521-3838(200111)20:4<291::aid-qsar291>3.0.co;2-q
[12] = not given; remark: listed apart in the source
[13] = method code SF, from DOI: 10.1111/j.2042-7158.1971.tb08772.x, PMID: 4401532; conditions: pH 7.2
[14] = method code SF-AS, from DOI: 10.1016/0021-9673(94)89049-8; conditions: pH 7.0
[15] = not given; remark: listed apart in the source
[16] = method code SF-AS, from DOI: 10.1016/0223-5234(93)90135-2; conditions: pH 12.2
[17] = method code SF-AS, from DOI: 10.1021/jf950378u
[18] = not given; remark: listed apart in the source
[19] = method code SF-AS, from DOI: 10.1080/00021369.1974.10861343
[20] = not given; remark: listed apart in the source
[21] = method code SF-AS, from DOI: 10.1111/j.1476-5381.1975.tb07619.x, PMID: 1182339; conditions: pH 10.0
[22] = method code SF, from PMID: 718082
[23] = method code SF, from DOI: 10.1016/0378-5173(86)90155-9; conditions: pH 7.0

logD [1]: 2.45
SMILES: CCCOC(=O)c1sc2cc(O)c(O)cc2c1Cl

logD [2]: 1.95
SMILES: CCOc1ccc(CC(=O)O)cc1

logP [3]: -1.66
SMILES: Nc1nc2c(ncn2COC(CO)CO)c(=O)[nH]1

logP [7]: 3.02
SMILES: CC(C)(C)OC(=O)Oc1ccccc1

logP [8]: 2.01
SMILES: CC(C)OC(=O)CS(=O)(=O)c1ccc([N+](=O)[O-])cc1[N+](=O)[O-]

logD [10]: 1.08
SMILES: Cn1cnc([N+](=O)[O-])c1S(=O)(=O)Oc1ccccc1

logP [12]: 0.52
SMILES: CC(=O)OC[C@H]1O[C@@H](n2ccnc2[N+](=O)[O-])[C@H](OC(C)=O)[C@@H](OC(C)=O)[C@@H]1OC(C)=O

logD [14]: -0.06
SMILES: Nc1ncnc2c1ncn2[C@@H]1O[C@H](CCl)[C@@H](O)[C@H]1O

logP [3]: -0.14
SMILES: CCC(=O)OCC(COC(=O)CC)OCn1cnc2c(=O)[nH]c(N)nc21

logD [13]: 1.66
SMILES: CC(=O)Nc1ccc([N+](=O)[O-])cc1

logD [14]: 0.03
SMILES: Nc1nc(Cl)nc2c1ncn2[C@H]1C[C@H](O)[C@@H](CO)O1

logD [14]: -0.8
SMILES: Nc1nc(F)nc2c1ncn2[C@@H]1O[C@H](CO)[C@@H](O)[C@H]1O

logP [12]: -0.66
SMILES: O=[N+]([O-])c1nccn1[C@@H]1S[C@H](CO)[C@@H](O)[C@H](O)[C@H]1O

logD [14]: -0.37
SMILES: Nc1nc(Cl)nc2c1ncn2C1OC(CO)C(O)C1O (configuration not stated)

logP [3]: 0.83
SMILES: CCCC(=O)OCC(COC(=O)CCC)OCn1cnc2c(=O)[nH]c(N)nc21

logP [12]: 0.63
SMILES: CC(=O)OC[C@H]1S[C@@H](n2ccnc2[N+](=O)[O-])[C@H](OC(C)=O)[C@@H](OC(C)=O)[C@@H]1OC(C)=O

logP [22]: -1.05
SMILES: CC(=O)Nc1c(I)c(NC(C)=O)c(I)c(C(=O)O)c1I

logP [17]: 0.32
SMILES: COc1ccc([C@@H]2CC(=O)c3c(O)cc(O[C@@H]4O[C@H](CO[C@@H]5O[C@@H](C)[C@H](O)[C@@H](O)[C@H]5O)[C@@H](O)[C@H](O)[C@H]4O)cc3O2)cc1O

logP [7]: 2.56
SMILES: O=C(O)CCCCCOC(=O)Oc1ccccc1

logD [1]: 2.91
SMILES: CC(C)C(=O)OCOC(=O)c1sc2cc(O)c(O)cc2c1Cl

logD [10]: -0.53
SMILES: O=[N+]([O-])c1nccn1CC(O)CCN1CCOCC1 (configuration not stated)

logD [1]: 3.02
SMILES: CC(OC(=O)c1sc2cc(O)c(O)cc2c1Cl)OC(=O)C(C)C (configuration not stated)

logP [8]: 1.69
SMILES: COC(=O)CS(=O)c1ccc([N+](=O)[O-])cc1Cl (configuration not stated)

logD [9]: 0.58
SMILES: COc1ccc(CC2CNC(=O)C2)cc1OC (configuration not stated)

logP [12]: -1.4
SMILES: O=[N+]([O-])c1nccn1[C@@H]1O[C@H](CO)[C@@H](O)[C@H](O)[C@H]1O

logP [19]: 3.55
SMILES: CCOC(=O)C=COc1ccccc1Cl

logD [23]: 3.24
SMILES: CSCCCOc1ccc([N+](=O)[O-])cc1

logD [23]: 0.97
SMILES: NS(=O)(=O)CCCOc1ccc([N+](=O)[O-])cc1

logD [23]: 1.1
SMILES: CS(=O)(=O)CCCOc1ccc([N+](=O)[O-])cc1

logP [3]: -0.88
SMILES: COC(=O)OCC(COC(=O)OC)OCn1cnc2c(=O)[nH]c(N)nc21

logD [10]: -0.19
SMILES: O=C1CN(/N=C/c2ccc([N+](=O)[O-])o2)C(=O)N1

logP [7]: 2.18
SMILES: CCOC(=O)Oc1ccccc1

logD [2]: 1.48
SMILES: COc1ccc(CC(=O)O)cc1

logD [23]: 1.39
SMILES: NC(=O)CCCCOC(=O)c1ccccc1

logP [8]: 2.03
SMILES: COC(=O)CSc1ccc([N+](=O)[O-])cc1[N+](=O)[O-]

logP [7]: 0.73
SMILES: O=C(O)[C@H]1O[C@@H](Oc2ccccc2)[C@H](O)[C@@H](O)[C@@H]1O

logP [8]: 0.95
SMILES: COC(=O)CS(=O)(=O)c1ccccc1[N+](=O)[O-]

logD [1]: 1.51
SMILES: COC(=O)c1sc2cc(O)c(O)cc2c1Cl

More lines, now with the values behind:

SMILES: CC(N)CCc1ccccc1 (configuration not stated)
logP: 2.12

SMILES: CC1(C)[C@H](C(=O)OCc2coc(Cc3ccccc3)c2)[C@@H]1/C=C1/CCSC1=O
logP [4]: 4.31

SMILES: CC(C)NCc1ccccc1
logP: 1.83

SMILES: C[C@H](c1ccccc1)n1cncc1C(=O)OCc1ccc(C2(C(F)(F)F)N=N2)cc1
logD [5]: 4.3

SMILES: [O-][N+](=Cc1ccccc1)c1ccccc1
logP [6]: 1.88

SMILES: O=C1CCC(c2ccc(-n3ccnc3)cc2)=NN1
logD [9]: 1

SMILES: COc1ccc(CCCC(=O)O)cc1
logD [2]: 2.33

SMILES: Cc1ccc(-c2n[nH]c(=S)o2)cc1
logP [11]: 3.44

SMILES: CC(=O)Nc1ccc(I)cc1
logD [13]: 2.46

SMILES: CNC(=O)ON=C(CS(C)=O)C(C)(C)C (configuration not stated)
logP [4]: 2.75

SMILES: CC(=O)Nc1ccc(NN=C(C#N)C#N)cc1
logD ([15]; pH 3.0): 1.83

SMILES: NCCc1nc(-c2ccccc2)cs1
logD [16]: 2.22

SMILES: O=C(O)/C=C/c1ccccc1O
logP [17]: 0.62

SMILES: CNCCc1ccccn1
logD [16]: 0.68

SMILES: NCCc1cn2ccccc2n1
logD [16]: 0.59

SMILES: N#CC(C#N)=NNc1ccc(CCCl)cc1
logD ([15]; pH 7.2): 2.44

SMILES: CSc1nc(NCCC=O)nc(NC(C)(C)C)n1
logP [18]: 2.92

SMILES: COC(=O)/C=C/Oc1ccccc1
logP [19]: 2.68

SMILES: CCC(C)c1ccc(O)cc1 (configuration not stated)
logP [20]: 3.32

SMILES: O=C1CCC(c2ccncc2)=NN1
logD [9]: 0.18

SMILES: Cc1cc(NC(=O)NC(=N)N)ccc1Cl
logD [21]: 2.19

SMILES: N#CC(C#N)=NNc1ccc(OC(F)(F)F)cc1
logD ([15]; pH 3.0): 3.68

SMILES: N#CC(C#N)=NNc1ccc(/N=N/c2ccccc2)cc1
logD ([15]; pH 3.0): 4.25

SMILES: CCNCc1ccccc1
logP: 1.82

SMILES: C[C@H](c1ccccc1)n1cncc1C(=O)OCc1ccc(C(=O)c2ccccc2)cc1
logD [5]: 4.4

SMILES: CC(C)c1ccc(C=[N+]([O-])c2ccccc2)cc1
logP [6]: 3.37

SMILES: CC(C)(C)c1cccc(O)c1
logP [20]: 3.05

SMILES: O=C(O)CCc1ccc(O)cc1
logD [2]: 1.16

SMILES: Oc1ccccc1-c1n[nH]c(=S)o1
logP [11]: 2.42

SMILES: CC(=O)Nc1ccc(C)cc1
logD [13]: 1.4

SMILES: COc1ccc(C(OC(C)=O)C(Cl)(Cl)Cl)cc1 (configuration not stated)
logP [4]: 3.72

SMILES: CSc1ccc(C(=O)c2[nH]c(=O)[nH]c2C)cc1
logD [9]: 1.55

SMILES: CN(C)CCc1ccccn1
logD [16]: 1.12

SMILES: N=C(N)NC(=O)Nc1ccc([N+](=O)[O-])c(Cl)c1
logD [21]: 1.79

SMILES: Cc1cc(O)cc(C)c1Cl
logP [20]: 3.27

SMILES: S=c1[nH]nc(-c2ccccc2Cl)o1
logP [11]: 3.36

SMILES: NC(=O)c1cc(N2CC2)c([N+](=O)[O-])cc1[N+](=O)[O-]
logD [10]: 0.2

SMILES: CSc1nc(NC2CC2)nc(NC(C)(C)C)n1
logP [18]: 3.38

SMILES: N=C(N)NC(=O)Nc1ccc(Cl)cc1
logD [21]: 1.78

SMILES: CSc1nc(NC(C)(C)C)nc(NC(C)(C)C)n1
logP [18]: 4.39

SMILES: O=C(O)/C=C/Oc1ccc(Cl)cc1Cl
logD ([19]; pH 3.0): 3.46

SMILES: N#Cc1ccc(NC(=O)NC(=N)N)cc1Cl
logD [21]: 1.9

SMILES: CCCCNCc1ccccc1
logP: 2.59

SMILES: O=c1ccc2ccc(O)c(O)c2o1
logP [17]: 0.71

SMILES: CCCCCC1(CCO)N=N1
logD [5]: 2.55

SMILES: Cc1cccc(C)c1C#[N+][O-]
logP [6]: 2.74

SMILES: Cc1ccc(C=[N+]([O-])c2ccccc2)cc1
logP [6]: 2.41

SMILES: CC(=O)Nc1ccc(C=O)cc1
logD [13]: 1.25

SMILES: COP(N)(=S)Oc1ccccc1C(=O)OC(C)C (configuration not stated)
logP [4]: 2.7

SMILES: CSc1nc(N)nc(NC(C)(C)C)n1
logP [18]: 2.54

SMILES: Oc1cc(O)c2c(c1)O[C@H](c1ccc(O)c(O)c1)[C@@H](O)C2
logP [17]: 1.31

SMILES: C[C@H](c1ccccc1)n1cncc1C(=O)OCCC1(C)N=N1
logD [5]: 3.6

SMILES: COC(=O)C=COc1ccccc1Cl
logP [19]: 3.02

SMILES: Cc1cccc(O)c1C
logP [20]: 2.48
